1 substance from patent US7084248B2, “Peptide composition and method for delivering substances into the cytosol of cells” (Gene Tools, LLC, priority 2004, dated 2006) can be followed below.

The assay relates to cultured animal cells. Description: Functional assay of cytosolic delivery of a Morpholino antisense oligo (splice-correction luciferase system). Type of assay: cell-based. Particulars: all-histidine peptides. An excerpt:
In contrast to the above design flexibility, the respective sizes of the lipophilic and weak-base faces of the delivery peptide have a substantial impact on that peptide's delivery efficiency. […] These assays utilized an established functional measurement of cytosolic delivery of a Morpholino antisense oligo in cultured cells (Kang, 1998). A representative test procedure of this type is described in Example 6, in a later section of his application.
The most definitive assessment of cytosolic delivery is one wherein when a cargo is delivered into the cytosol of a cell it generates a quantifiable signal proportional to the amount of cargo delivered into the cytosol. Also, for definitive results, that cargo should be completely stable within the cytosol so that increases due to delivery are not underestimated due to losses from degradation.
In the Kole test system (commercially available from GENE TOOLS, LLC, Philomath, Oreg.) a cell line has been stably transfected with a gene that codes for an RNA transcript that includes a mutation that generates a splicing error which acts to prevent the translation of luciferase coded by that RNA transcript. […] This leads to normal translation of the luciferase, and the light emission from that luciferase is readily quantitated in a luminometer. […]

On to poly-histidine, for which the “delivery of a Morpholino antisense oligo into the cytosol of cultured animal cells” value is “neither poly-histidine nor defined-length oligo-histidines achieved significant delivery”.
